According to patent US8598345B2 (priority 2009, dated 2013):

Test system: not given
Conditions: intravenous administration to rhesus monkeys; literature; cited from earlier work

In the case of `Cc1nc(C#Cc2cccnc2)cs1` [MTEP, 3-[(2-methyl-1,3-thiazol-4-yl)ethynyl]pyridine], the clearance is given as “efficiently cleared”.

Biological target: human mGluR5 (Homo sapiens, UniProt P41594)
Conditions: read-out: human mGluR5 IC50
Method: The cells were loaded with a Ca2+-sensitive fluorescent dye (e.g., Fluo-4), and the plates were washed and placed in the FDSS instrument. Test compound was applied to cells 3 seconds after baseline readings were taken. Cells were incubated with the test compounds for 140 seconds and then stimulated with an EC20 concentration of an mGluR5 agonist (e.g., glutamate, 3,5-dihydroxyphenylglycine, or quisqualate); 60-80 seconds later an EC80 concentration of agonist was added and readings taken for an additional 40 seconds. Data were collected at 1 Hz. […] Concentration response curves were generated using a four parameter logistical equation.
The above described assay was operated in two modes. In the first mode (utilizing a triple add protocol), a range of concentrations of the present compounds were added to cells, followed by two single fixed concentrations of agonist (EC20 followed by EC80). If a compound acted as a potentiator, an EC50 value for potentiation of the EC20 response and a maximum extent of potentiation by the compound at this concentration of agonist was determined by non-linear curve fitting. If a compound acted as an antagonist, an IC50 value for antagonism of the EC80 response and a maximum extent of antagonism by the compound at this concentration of agonist was determined by non-linear curve fitting. In the second mode (utilizing a double add protocol), several fixed concentrations of the present compounds were added to various wells on a plate, followed by a range of concentrations of agonist for each concentration of present compound; the EC50 values for the agonist at each concentration of compound were determined by nonlinear curve fitting. A decrease in the EC50 value of the agonist with increasing concentrations of the present compounds (a leftward shift of the agonist concentration-response curve) is an indication of the degree of mGluR5 positive allosteric modulation at a given concentration of the present compound. An increase in the EC50 value of the agonist with increasing concentrations of the present compounds (a rightward shift of the agonist concentration response curve) is an indication of the degree of mGluR5 antagonism at a given concentration of the present compound. The second mode also indicates whether the present compounds also affect the maximum response to mGluR5 to agonists.
The mGluR5 activity was determined using the metabotropic glutamate receptor activity assays in human embryonic kidney cells as described herein. The mGluR5 activity data for some compounds are shown as the average of at least three experiments with the standard error in these cases. If no error is indicated for the mGluR5 activity, the values given represent the results from a single experiment or the average of two experiments.

human mGluR5, sequence (P41594 21-1212): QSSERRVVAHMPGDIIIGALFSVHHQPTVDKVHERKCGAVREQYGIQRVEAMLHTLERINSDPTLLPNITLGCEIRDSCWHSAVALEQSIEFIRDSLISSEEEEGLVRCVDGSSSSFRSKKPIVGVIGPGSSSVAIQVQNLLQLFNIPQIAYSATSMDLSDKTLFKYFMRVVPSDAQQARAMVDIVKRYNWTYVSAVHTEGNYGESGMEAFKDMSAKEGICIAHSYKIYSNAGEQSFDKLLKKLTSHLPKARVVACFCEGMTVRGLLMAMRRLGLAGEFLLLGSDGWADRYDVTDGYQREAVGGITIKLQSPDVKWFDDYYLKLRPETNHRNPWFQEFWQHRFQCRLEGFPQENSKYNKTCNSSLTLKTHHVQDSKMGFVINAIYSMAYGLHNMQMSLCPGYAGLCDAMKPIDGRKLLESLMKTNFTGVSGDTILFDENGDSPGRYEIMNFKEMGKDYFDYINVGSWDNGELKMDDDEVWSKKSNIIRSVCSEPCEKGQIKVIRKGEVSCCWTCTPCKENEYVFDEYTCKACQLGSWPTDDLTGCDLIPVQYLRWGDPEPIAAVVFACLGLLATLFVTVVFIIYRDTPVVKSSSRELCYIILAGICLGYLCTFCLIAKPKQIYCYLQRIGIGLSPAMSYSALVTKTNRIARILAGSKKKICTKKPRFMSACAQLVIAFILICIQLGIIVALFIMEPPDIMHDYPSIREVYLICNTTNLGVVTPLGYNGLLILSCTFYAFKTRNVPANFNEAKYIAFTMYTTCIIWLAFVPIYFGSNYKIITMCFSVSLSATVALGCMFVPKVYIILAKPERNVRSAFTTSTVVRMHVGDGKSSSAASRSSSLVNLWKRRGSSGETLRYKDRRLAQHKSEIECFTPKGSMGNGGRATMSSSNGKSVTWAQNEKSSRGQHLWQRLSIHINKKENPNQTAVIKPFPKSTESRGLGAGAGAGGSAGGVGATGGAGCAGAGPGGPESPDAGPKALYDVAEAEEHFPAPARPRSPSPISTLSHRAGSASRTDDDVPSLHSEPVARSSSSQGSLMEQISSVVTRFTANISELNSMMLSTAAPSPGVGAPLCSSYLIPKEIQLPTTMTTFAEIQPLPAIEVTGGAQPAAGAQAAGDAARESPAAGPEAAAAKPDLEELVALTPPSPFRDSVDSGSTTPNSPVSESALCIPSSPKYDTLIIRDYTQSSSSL

Going from `Cc1cccc(NC(=O)c2cc(N(C)c3cncnc3)ccn2)n1` to `Cc1cccc(NC(=O)c2cc(Oc3cncnc3)ccn2)n1` [N-(6-methylpyridin-2-yl)-4-(pyrimidin-5-yloxy)picolinamide], the IC50 falls from 2150 nM to 47 nM (46-fold). The second is the more potent here.

Compared with `O=C(Nc1ccc(F)cn1)c1cc(Oc2cncnc2)ccn1`, `O=C(Nc1cc(F)ccn1)c1cc(Oc2cncnc2)ccn1` is 1.8-fold lower in IC50: 364 nM for the first, 201 nM for the second.

First: O=C(Nc1cccc(Cl)n1)c1cc(Oc2cncnc2)ccn1
Second: O=C(Nc1cccc(F)n1)c1cc(Oc2cncnc2)ccn1
The IC50 of the first is 1.5-fold higher: 245 nM for the first, 161 nM for the second.

First: Cc1nc(NC(=O)c2cc(Oc3cncnc3)ccn2)sc1F
Second: Cc1csc(NC(=O)c2cc(Oc3cccnc3)ccn2)n1 [N-(4-methylthiazol-2-yl)-4-(pyridin-3-yloxy)picolinamide]
The IC50 of the first is 9.3-fold higher: 943 nM for the first, 101 nM for the second. The second is the more potent here.
